In patent US20220332700A1, “NOVEL APOPTOSIS SIGNAL-REGULATING KINASE 1 INHIBITORS” (MANKIND PHARMA LTD, priority 2019, published 2022) one finds IC50 data, which are given here for 23 molecules.

This assay addresses T1, recombinant ASK1 (Homo sapiens, UniProt Q99683).
T1 construct: purchased Carna Biosciences
As to the kind of experiment: ASK1 Biochemical Assay (HTRF KinEASE-STK S3). The following applies: ATP 100 μM; read-out: Biochemical Assay IC50. The protocol: ASK1 biochemical assay was standardized using recombinant ASK1 (Carna Biosciences), substrate and detection reagents from Cisbio HRTF KinEASE-STK S3 kit. Enzyme concentration, ATP, biotinylated STK substrate and STK antibodies were titrated for enzyme assay. Assay was carried out in ASK1 kinase buffer, 10 mM MOPS pH-7, 10 mM Mg-acetate, 1 mM DTT, 0.025% NP40, 1.5% glycerol and 0.05% BSA. DMSO was used as vehicle control with a final concentration of 1%. A 5 ng of ASK1 enzyme was incubated with compound for 1 hour at 23° C. on a shaker at 100rpm. ATP and biotin substrate was added at a final concentration of 100 μM and 1 μM and incubated for 3 hours at 23° C. on a shaker at 100rpm. […] Delta F ratios were calculated from data obtained at excitation (337 nm) and emission wavelengths (665 nm and 620-10 nm). Substrate blank values was considered as negative control. Values from negative control was substrated from vehicle control and compound treated wells. Enzyme inhibition by compounds were calculated from vehicle controls, which represent uninterrupted enzyme's activity.
(In general: Time-resolved FRET reads energy transfer from a long-lived donor to a nearby acceptor.)

T1 sequence (Q99683 654-971 limits assumed): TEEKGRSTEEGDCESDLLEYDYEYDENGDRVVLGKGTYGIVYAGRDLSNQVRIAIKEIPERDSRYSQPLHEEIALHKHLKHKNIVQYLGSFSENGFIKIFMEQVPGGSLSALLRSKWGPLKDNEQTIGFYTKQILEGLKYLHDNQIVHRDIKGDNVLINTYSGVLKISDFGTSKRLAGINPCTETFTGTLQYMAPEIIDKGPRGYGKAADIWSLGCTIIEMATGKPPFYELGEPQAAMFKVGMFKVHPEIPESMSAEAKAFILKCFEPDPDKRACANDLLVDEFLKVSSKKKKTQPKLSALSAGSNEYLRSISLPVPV

For orientation: IC50 means the concentration that inhibits the measured activity by half. With `CNC(=O)C1CN(c2ccc(N3CCN(c4cccc(-c5nncn5C(C)C)n4)C3=O)cn2)C1` [Example 1122, 1-(5-(3-(6-(4-isopropyl-4H-1,2,4-triazol-3-yl)pyridin-2-yl)-2-oxoimidazolidin-1-yl)pyridin-2-yl)-N-methylazetidine-3-carboxamide], the IC50 is less than 100 nM.

`COc1cc(C)c(-c2ccc(S(C)(=O)=O)cc2)cc1N1CCN(c2cccc(-c3nncn3C(C)C)n2)C1=O` [Example 1026, 1-(6-(4-isopropyl-4H-1,2,4-triazol-3-yl)pyridin-2-yl)-3-(4-methoxy-6-methyl-4′-(methylsulfonyl)-[1,1′-biphenyl]-3-yl)imidazolidin-2-one]: the IC50 was more than 100 nM.

With `CC(C)n1cnnc1-c1cccc(N2CCN(c3ccc(N4CCC(N(C)C)CC4)nc3)C2=O)n1` [Example 1121, 1-(6-(4-(dimethylamino)piperidin-1-yl)pyridin-3-yl)-3-(6-(4-isopropyl-4H-1,2,4-triazol-3-yl)pyridin-2-yl)imidazolidin-2-one], the IC50 is less than 100 nM.

On to `CC(C)n1cnnc1-c1cccc(N2CCN(c3ccc(O)cc3)C2=O)n1` [Example 1030, 1-(4-hydroxyphenyl)-3-(6-(4-isopropyl-4H-1,2,4-triazol-3-yl)pyridin-2-yl)imidazolidin-2-one], for which the half-maximal inhibitory concentration (IC50) is more than 1000 nM.

On to `COCCCNC(=O)c1ccc(N2CCN(c3cccc(-c4nncn4C(C)C)n3)C2=O)cn1` [Example 1117, 5-(3-(6-(4-isopropyl-4H-1,2,4-triazol-3-yl)pyridin-2-yl)-2-oxoimidazolidin-1-yl)-N-(3-methoxypropyl)pyridine-2-carboxamide], for which the 50% inhibitory concentration (IC50) was less than 100 nM.

As for `CC(C)n1cnnc1-c1cccc(-n2ccn(-c3cccc(-n4ccnc4)c3)c2=O)n1` [Example 1006, 1-(3-(1H-imidazol-1-yl)phenyl)-3-(6-(4-isopropyl-4H-1,2,4-triazol-3-yl)pyridin-2-yl)-1H-imidazol-2(3H)-one], the IC50 is less than 1000 nM.

As to `CC(C)n1cnnc1-c1cccc(N2CCN(c3ccc(S(C)(=O)=O)cc3)C2=O)n1` [Example 1065, 1-(6-(4-isopropyl-4H-1,2,4-triazol-3-yl)pyridin-2-yl)-3-(4-(methylsulfonyl)phenyl)imidazolidin-2-one], the IC50 is more than 1000 nM.

As for `CC(C)n1cnnc1-c1cccc(N2CCN(c3ccc(N4[C@H](C)COC[C@H]4C)cc3)C2=O)n1` [Example 1086, 1-(6-(4-isopropyl-4H-1,2,4-triazol-3-yl)pyridin-2-yl)-3-(4-((3R,5R)-3,5-dimethylmorpholino)phenyl)imidazolidin-2-one], the IC50 was less than 100 nM.

Turning to `CC(C)n1cnnc1-c1cccc(N2CCN(c3cccc(-c4ccc(C(N)=O)cc4)c3)C2=O)n1` [Example 1015, 3′-(3-(6-(4-isopropyl-4H-1,2,4-triazol-3-yl)pyridin-2-yl)-2-oxoimidazolidin-1-yl)-[1,1′-biphenyl]-4-carboxamide], the IC50 was more than 1000 nM.

On to `CC(C)n1cnnc1-c1cccc(N2CCN(c3cc(-n4ccnc4)ccn3)C2=O)n1` [Example 1003, 1-(4-(1H-imidazol-1-yl)pyridin-2-yl)-3-(6-(4-isopropyl-4H-1,2,4-triazol-3-yl)pyridin-2-yl)imidazolidin-2-one], for which the half-maximal inhibitory concentration (IC50) is more than 1000 nM.

In the case of `CC(C)n1cnnc1-c1cccc(N2CCN(C)C2=O)n1` [Example 1099, 1-(6-(4-isopropyl-4H-1,2,4-triazol-3-yl)pyridin-2-yl)-3-methylimidazolidin-2-one], the 50% inhibitory concentration (IC50) is less than 100 nM.

As for `CC(C)n1cnnc1-c1cccc(N2CCN(c3ccc(N4CCCC4)cc3)C2=O)n1` [Example 1100, 1-(6-(4-isopropyl-4H-1,2,4-triazol-3-yl)pyridin-2-yl)-3-(4-(pyrrolidin-1-yl)phenyl)imidazolidin-2-one], the half-inhibitory concentration (IC50) is less than 100 nM.

`CC(C)n1cnnc1-c1cccc(N2CCN(c3cccc(-c4ccc(C#N)cc4)c3)C2=O)n1` [Example 1016, 3′-(3-(6-(4-isopropyl-4H-1,2,4-triazol-3-yl)pyridin-2-yl)-2-oxoimidazolidin-1-yl)-[1,1′-biphenyl]-4-carbonitrile]: the half-inhibitory concentration (IC50) is more than 1000 nM.

Turning to `Cc1cc(N2CCN(c3cccc(-c4nncn4C(C)C)n3)C2=O)ccc1N1CCOCC1` [Example 1079, 1-(6-(4-isopropyl-4H-1,2,4-triazol-3-yl)pyridin-2-yl)-3-(3-methyl-4-morpholinophenyl)imidazolidin-2-one], the IC50 is less than 100 nM.

Consider `Cc1cc(S(C)(=O)=O)ccc1N1CCN(c2cccc(-c3nncn3C(C)C)n2)C1=O` [Example 1042, 1-(6-(4-isopropyl-4H-1,2,4-triazol-3-yl)pyridin-2-yl)-3-(2-methyl-4-(methylsulfonyl)phenyl)imidazolidin-2-one], for which the concentration for half-maximal inhibition (IC50) is more than 100 nM.

With `COc1cc(C)c(S(C)(=O)=O)cc1N1CCN(c2cccc(-c3nncn3C(C)C)n2)C1=O` [Example 1031, 1-(6-(4-isopropyl-4H-1,2,4-triazol-3-yl)pyridin-2-yl)-3-(2-methoxy-4-methyl-5-(methylsulfonyl)phenyl)imidazolidin-2-one], the IC50 was more than 1000 nM.

On to `CC(C)n1cnnc1-c1cccc(N2CCN(c3cccc(-c4ccc(C(F)(F)F)cc4)c3)C2=O)n1` [Example 1017, 1-(6-(4-isopropyl-4H-1,2,4-triazol-3-yl)pyridin-2-yl)-3-(4′-(trifluoromethyl)-[1,1′-biphenyl]-3-yl)imidazolidin-2-one], for which the concentration for half-maximal inhibition (IC50) is more than 1000 nM.

Take `CC(C)n1cnnc1-c1cccc(N2CCN(c3ccc(F)c(C4CC4)c3)C2=O)n1` [Example 1060, 1-(3-cyclopropyl-4-fluorophenyl)-3-(6-(4-isopropyl-4H-1,2,4-triazol-3-yl)pyridin-2-yl)imidazolidin-2-one]: the IC50 was less than 100 nM.

Regarding `CC(C)n1cnnc1-c1cccc(N2CCN(c3ccc(S(C)(=O)=O)c(N4CCCC4)c3)C2=O)n1` [Example 1058, 1-(6-(4-isopropyl-4H-1,2,4-triazol-3-yl)pyridin-2-yl)-3-(4-(methylsulfonyl)-3-(pyrrolidin-1-yl)phenyl)imidazolidin-2-one], the IC50 was more than 100 nM.

For the molecule `CC(C)n1cnnc1-c1cccc(N2CCN(c3ccc(N4CCC(O)CC4)nc3)C2=O)n1` [Example 1072, 1-(6-(4-hydroxypiperidin-1-yl)pyridin-3-yl)-3-(6-(4-isopropyl-4H-1,2,4-triazol-3-yl)pyridin-2-yl)imidazolidin-2-one], the IC50 was more than 100 nM.

For the molecule `CC(C)n1cnnc1-c1cccc(N2CCN(S(C)(=O)=O)C2=O)n1` [Example 1028, 1-(6-(4-isopropyl-4H-1,2,4-triazol-3-yl)pyridin-2-yl)-3-(methylsulfonyl)imidazolidin-2-one], the half-inhibitory concentration (IC50) is more than 1000 nM.

Take `CC(C)n1cnnc1-c1cccc(N2CCN(c3cccc(-n4ccnc4)c3F)C2=O)n1` [Example 1008, 1-(2-fluoro-3-(1H-imidazol-1-yl)phenyl)-3-(6-(4-isopropyl-4H-1,2,4-triazol-3-yl)pyridin-2-yl)imidazolidin-2-one]: the IC50 is more than 1000 nM.

Turning to `CC(C)n1cnnc1-c1cccc(N2CCN(c3ccc(C(F)(F)F)cc3)C2=O)n1` [Example 1033, 1-(4-(trifluoromethyl)phenyl)-3-(6-(4-isopropyl-4H-1,2,4-triazol-3-yl)pyridin-2-yl)imidazolidin-2-one], the concentration for half-maximal inhibition (IC50) is more than 100 nM.
